# Measured values: patent US20090118361A1, “SUPPRESSOR OF EXPRESSION OF MCP-1, AND AMELIORATING AGENT FOR INFLAMMATORY DISEASE, PHARMACEUTICAL, SUPPLEMENT, FOOD, BEVERAGE OR FOOD ADDITIVE USING THE SUPPRESSOR” (ARKRAY, INC., priority 2006, published 2009)
# Key:
# MCP-1 [1] = experiment: MCP-1 protein secretion into conditioned medium of differentiated 3T3-L1 adipocytes (ELISA); type: cell-based, mouse; conditions: 3T3-L1 conditioned medium, eight days after start of differentiation induction, relative to non-treated control = 100, mean ± standard error
# Procedure: (§1) First, two types of culture media indicated below, i.e. a differentiation induction culture medium and a differentiation enhancing culture medium, were prepared.
# (§2) (Composition: 0.25 μM DEX, 0.5 mM MIX, 10 μg/mL insulin/10% FBS-containing DMEM)
# (§3) First, 55 mL of FBS (fetal bovine serum (manufactured by GIBCO)) was added to 500 mL of DMEM (manufactured by SIGMA), and thereby 10% FBS-containing DMEM was prepared. Thereafter, 138.75 μL of 1 mM DEX (dexamethasone)-containing DMSO (manufactured by Nacalai Tesque, Inc.) and 555 μL of 10 mg/mL insulin-containing PBS (manufactured by SIGMA) were added thereto. The insulin-containing PBS was prepared as follows. That is, 1N HCl was added to PBS beforehand, so that PBS acidified to a degree that allowed insulin to dissolve therein, and thereafter insulin was dissolved therein. MIX (3-Isobutyl-1-methylxanthine) (manufactured by Nacalai Tesque, Inc.) was added to a required amount of the culture medium immediately before use so as to be 0.5 mM. Thus a differentiation induction culture medium was prepared. Since MIX was very difficult to dissolve, it first was dissolved in a small amount of 99.5% ethanol. which was then added to 10% FBS-containing DMEM. In this case, the final concentration of 99.5% ethanol in the differentiation induction culture medium was adjusted so as not to exceed 1%.
# (§4) (Composition: 5 ug/mL insulin/10% FBS-containing DMEM/auraptene)
# First, 277.5 μL of the aforementioned 10 mg/mL insulin-containing PBS was added to 555 ml, of 10% FBS-containing DMEM. Furthermore, auraptene (AUR) with various concentrations was added to this mixture and thereby differentiation enhancing culture media were prepared. In this case, a cultured cell obtained by using auraptene-free differentiation enhancing culture medium containing DMSO added instead of auraptene was employed as a non-treated control (control).
# Subsequently, frozen cultured preadipocyte 3T3-L1 was thawed and was plated on the culture medium placed in a 100-mm dish. This was cultured until 3T3-L1 reached about 80% confluent. One dish of 3T3-L1 that had reached about 80% confluent was subcultured on a 6-well plate. Subsequently, after 3T3-L1 subcultured on the 6-well plate further was cultured until it reached 100% confluent, the culture medium was replaced by a differentiation induction culture medium and thereby differentiation was induced. Subsequently, 48 hours after replacement by a differentiation induction culture medium, the culture medium was replaced by a differentiation enhancing culture medium. Thereafter, replacement of the differentiation enhancing culture medium was carried out every three days. Using Sepasol RNA I Super (trade name, manufactured by Nacalai Tesque, Inc.), mRNA was extracted from the cultured cells eight days after the start of differentiation induction. Subsequently, using a Light/Cycler®, the levels of mRNA expression of MCP-1 and 36B4, […], were measured. The measurement of the levels of mRNA expression is described below in detail.
# Furthermore, the culture medium obtained eight days after the start of differentiation induction was collected in an amount of 1 mL from each well. Using an ELISA kit (manufactured by BD Bioscience, trade name: BD OptEIA Set Mouse MCP-1), the amount of MCP-1 (protein abundance) in the conditioned medium was measured according to the manual of the kit.
# The relative ratios calculated, with the measured value of the non-treated control (control) with respect to the measured value of the secretion amount of MCP-1 by ELISA being taken as 100, are indicated in Table 2 below and in the graph shown in FIG. 2. The auraptene concentrations indicated in Table 2 below and FIG. 2 are final concentrations in the differentiation enhancing culture media. In FIG. 2, AUR denotes auraptene, and Ctrl indicates the non-treated control (control). […]
# MCP-1 [2] = experiment: Suppression of MCP-1 mRNA expression in differentiated 3T3-L1 adipocytes (Light Cycler quantitative determination, ratio to 36B4); type: cell-based, mouse; conditions: 3T3-L1, eight days after start of differentiation induction, MCP-1/36B4 ratio relative to non-treated control = 100%, mean ± standard error
# Procedure: as §1, §2, §3, §4
# First, 277.5 μL of the aforementioned 10 mg/mL insulin-containing PBS was added to 555 ml, of 10% FBS-containing DMEM. Furthermore, auraptene (AUR) with various concentrations was added to this mixture and thereby differentiation enhancing culture media were prepared. […]
# Subsequently, frozen cultured preadipocyte 3T3-L1 was thawed and was plated on the culture medium placed in a 100-mm dish. […] Subsequently, using a Light/Cycler®, the levels of mRNA expression of MCP-1 and 36B4, […], were measured. […]
compound,measurement,setting,value
"CC(C)=CCC/C(C)=C/COc1ccc2ccc(=O)oc2c1 [Example 1, auraptene]",Protein secretion amount of MCP-1,MCP-1 [1]; auraptene 1 μM,94.6 ± 4.9%
same,Protein secretion amount of MCP-1,MCP-1 [1]; auraptene 5 μM,98.6 ± 2.5%
same,Protein secretion amount of MCP-1,MCP-1 [1]; auraptene 10 μM,92.1 ± 4.6%
same,Protein secretion amount of MCP-1,MCP-1 [1]; auraptene 20 μM,72.3 ± 2.2%
same,Protein secretion amount of MCP-1,MCP-1 [1]; auraptene 30 μM,63.9 ± 2.5%
same,Protein secretion amount of MCP-1,MCP-1 [1]; auraptene 50 μM,48.5 ± 2.1%
same,mRNA concentration of MCP-1,MCP-1 [2]; auraptene 5 μM in differentiation enhancing medium,99.8 ± 8.0%
same,mRNA concentration of MCP-1,MCP-1 [2]; auraptene 20 μM in differentiation enhancing medium,62.3 ± 5.8%
same,mRNA concentration of MCP-1,MCP-1 [2]; auraptene 50 μM in differentiation enhancing medium,28.3 ± 2.9%
